Laboratory results: ChEMBL document CHEMBL1152367, “Discovery and functional evaluation of diverse novel human CB(1) receptor ligands” (Bioorg Med Chem Lett, 2009)

Columns and labels:
Cannabinoid receptor 1 [1] = target: T1, Cannabinoid receptor 1 (Homo sapiens, UniProt P21554); test: Displacement of [3H]rimonabant from human CB1 receptor expressed in HEK293 cells assessed as signal point inhibition at 10 uM by liquid scintillation counting; type: cell-based
Cannabinoid receptor 1 [2] = target: T1, Cannabinoid receptor 1; test: biochemical; type: cell-based, HEK293
Homo sapiens = species on record: Homo sapiens; test: Selectivity ratio of Ki for human CB2 receptor to Ki for human CB1 receptor
Cannabinoid receptor 2 = Cannabinoid receptor 2 (Homo sapiens, UniProt P34972); test: Displacement of [3H]rimonabant from human CB2 receptor expressed in HEK293 cells by liquid scintillation counting; type: cell-based
Cannabinoid receptor 1 [3] = target: T1, Cannabinoid receptor 1; test: Inverse agonist activity at human CB1 receptor by [35S]GTPgammaS incorporation assay relative to rimonabant; type: functional; design: concentration or dose not given beside the values
Cannabinoid receptor 1 [4] = target: T1, Cannabinoid receptor 1; test: Inverse agonist activity at human CB1 receptor by [35S]GTPgammaS incorporation assay; type: functional

Chain of Cannabinoid receptor 2 (P34972 whole entry): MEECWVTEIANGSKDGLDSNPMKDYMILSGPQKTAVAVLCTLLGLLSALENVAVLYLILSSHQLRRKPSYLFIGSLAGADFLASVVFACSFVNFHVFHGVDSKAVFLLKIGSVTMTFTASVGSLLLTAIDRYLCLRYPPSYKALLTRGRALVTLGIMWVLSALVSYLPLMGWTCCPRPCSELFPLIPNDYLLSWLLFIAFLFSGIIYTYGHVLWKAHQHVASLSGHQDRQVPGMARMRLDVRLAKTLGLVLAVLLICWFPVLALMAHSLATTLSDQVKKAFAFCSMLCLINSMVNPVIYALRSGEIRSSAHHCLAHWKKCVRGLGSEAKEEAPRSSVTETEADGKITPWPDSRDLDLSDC
T1 sequence (P21554 whole entry): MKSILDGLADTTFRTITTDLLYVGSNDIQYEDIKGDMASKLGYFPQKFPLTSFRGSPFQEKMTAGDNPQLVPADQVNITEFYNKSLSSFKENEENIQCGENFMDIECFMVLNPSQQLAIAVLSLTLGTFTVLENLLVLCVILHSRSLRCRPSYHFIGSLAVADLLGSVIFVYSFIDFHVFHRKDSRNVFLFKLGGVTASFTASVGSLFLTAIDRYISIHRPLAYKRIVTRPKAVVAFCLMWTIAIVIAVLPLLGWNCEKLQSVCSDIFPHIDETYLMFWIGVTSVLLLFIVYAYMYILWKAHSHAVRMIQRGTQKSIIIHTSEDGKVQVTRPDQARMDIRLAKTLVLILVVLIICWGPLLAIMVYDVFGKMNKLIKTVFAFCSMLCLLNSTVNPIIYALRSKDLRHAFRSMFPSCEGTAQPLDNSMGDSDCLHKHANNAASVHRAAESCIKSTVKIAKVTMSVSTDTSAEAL

CC1CN(c2ncnc(NC(c3ccccc3)c3ccccc3)c2[N+](=O)[O-])CC(C)O1 (configuration not stated)
inhibition (Cannabinoid receptor 1 [1]): 67%
Ki (Cannabinoid receptor 1 [2]): 1.18 µM

COc1ccccc1NC(=O)C(C)Sc1nc(-c2ccc(C)cc2)nc2c1COC(C)(C)C2 (configuration not stated)
Ratio Ki (Homo sapiens): > 37.9
inhibition (Cannabinoid receptor 1 [1]): 85%
Ki (Cannabinoid receptor 1 [2]): 0.264 µM
Ki (Cannabinoid receptor 2): 10 µM
Activity (Cannabinoid receptor 1 [3]): 91%
EC50 (Cannabinoid receptor 1 [4]): 1.2 µM

CC(C)(C)c1ccc(C(=O)N2C(C(=O)NCc3ccccn3)CSC2c2cccc(F)c2)cc1 (configuration not stated)
inhibition (Cannabinoid receptor 1 [1]): 62%
Ki (Cannabinoid receptor 1 [2]): 7.49 µM

CC(C(=O)N1c2ccccc2C(C)(c2ccc(Cl)cc2)CC1(C)C)N1C(=O)C2CCCCC2C1=O (configuration not stated)
inhibition (Cannabinoid receptor 1 [1]): 73%
Ki (Cannabinoid receptor 1 [2]): 0.52 µM

CCCNC(=O)N1CCN(c2nc(Cc3ccccc3)c3c(c2C#N)CC(C)(C)OC3)CC1
inhibition (Cannabinoid receptor 1 [1]): 81%
Ki (Cannabinoid receptor 1 [2]): 3.95 µM

COc1cccc(N2C(C(C)=O)=NN(c3ccc(Cl)cc3)C2c2ccc(N3CCOCC3)cc2)c1 (configuration not stated)
Ratio Ki (Homo sapiens): 17.3
inhibition (Cannabinoid receptor 1 [1]): 90%
Ki (Cannabinoid receptor 1 [2]): 0.227 µM
Ki (Cannabinoid receptor 2): 3.92 µM
Activity (Cannabinoid receptor 1 [3]): 81%
EC50 (Cannabinoid receptor 1 [4]): 0.6 µM

Cc1ccc(Cc2nsc(N3CCCN(C(=O)Nc4c(C(C)C)cccc4C(C)C)CC3)n2)cc1
inhibition (Cannabinoid receptor 1 [1]): 77%
Ki (Cannabinoid receptor 1 [2]): 1.76 µM

CCOC(=O)CN1C(c2ccc(F)cc2)Nc2ccc(Br)cc2C1c1ccccc1 (configuration not stated)
inhibition (Cannabinoid receptor 1 [1]): 77%
Ki (Cannabinoid receptor 1 [2]): 0.273 µM

CC(C)CN(CC(=O)N1CCc2sccc2C1c1ccc(F)cc1)C(=O)c1ccco1 (configuration not stated)
inhibition (Cannabinoid receptor 1 [1]): 89%
Ki (Cannabinoid receptor 1 [2]): 0.875 µM
Activity (Cannabinoid receptor 1 [3]): 105%
EC50 (Cannabinoid receptor 1 [4]): 4.4 µM

COc1ccc(C2C(C(=O)Nc3cccc(C)n3)c3ccccc3C(=O)N2C2CCCCC2)cc1 (configuration not stated)
inhibition (Cannabinoid receptor 1 [1]): 69%
Ki (Cannabinoid receptor 1 [2]): 2.4 µM

COc1ccccc1N1CCN(C(=O)C(C)Sc2nc(-c3ccccc3)cc(C(F)(F)F)n2)CC1 (configuration not stated)
inhibition (Cannabinoid receptor 1 [1]): 80%
Ki (Cannabinoid receptor 1 [2]): 2.31 µM

COc1ccc(C2c3cccn3-c3ccccc3N2C(=O)CN(C(=O)NC(C)(C)C)C(C)C)cc1 (configuration not stated)
Ratio Ki (Homo sapiens): 16.1
inhibition (Cannabinoid receptor 1 [1]): 95%
Ki (Cannabinoid receptor 1 [2]): 0.308 µM
Ki (Cannabinoid receptor 2): 4.95 µM
Activity (Cannabinoid receptor 1 [3]): 103%
EC50 (Cannabinoid receptor 1 [4]): 1.5 µM

Cc1cc(-c2ccccc2)n(Cc2ccccc2)c(=O)c1S(=O)(=O)c1ccccc1
inhibition (Cannabinoid receptor 1 [1]): 73%
Ki (Cannabinoid receptor 1 [2]): 2.72 µM

CC(C)N(CC(=O)N1c2ccccc2-n2cccc2C1c1ccc(F)cc1)C(=O)CC(C)(C)C (configuration not stated)
inhibition (Cannabinoid receptor 1 [1]): 64%
Ki (Cannabinoid receptor 1 [2]): 1.03 µM
Activity (Cannabinoid receptor 1 [3]): 77%
EC50 (Cannabinoid receptor 1 [4]): 1.1 µM

CCN(Cc1ccccc1)C(=O)c1oc2ccc(S(=O)(=O)N3CC(C)CC(C)C3)cc2c1C (configuration not stated)
Ratio Ki (Homo sapiens): 33.7
Activity (Cannabinoid receptor 1 [3]): 95%
EC50 (Cannabinoid receptor 1 [4]): 0.3 µM

CC1CC(C)CN(S(=O)(=O)c2ccc(F)c(C(=O)NC(c3ccccc3)c3ccccc3)c2)C1 (configuration not stated)
Ratio Ki (Homo sapiens): > 16.4
inhibition (Cannabinoid receptor 1 [1]): 77%
Ki (Cannabinoid receptor 1 [2]): 0.611 µM
Ki (Cannabinoid receptor 2): 10 µM
Activity (Cannabinoid receptor 1 [3]): 50%
EC50 (Cannabinoid receptor 1 [4]): 0.5 µM

O=C(Nc1ccccc1Oc1ccccc1)c1ccc(S(=O)(=O)N2CCc3ccccc32)cc1
Ratio Ki (Homo sapiens): > 39
inhibition (Cannabinoid receptor 1 [1]): 82%
Ki (Cannabinoid receptor 1 [2]): 0.256 µM
Ki (Cannabinoid receptor 2): 10 µM
Activity (Cannabinoid receptor 1 [3]): 62%
EC50 (Cannabinoid receptor 1 [4]): 0.2 µM

Cc1cccc(C)c1N(C(=O)c1ccccc1Cl)C(=O)C(c1ccc([N+](=O)[O-])cc1)N1CCOCC1 (configuration not stated)
inhibition (Cannabinoid receptor 1 [1]): 79%
Ki (Cannabinoid receptor 1 [2]): 2.78 µM

Cc1ccc(C(=O)n2cc(/C=N/Nc3nc(N4CCOCC4)nc(N4CCOCC4)n3)c3ccccc32)cc1
inhibition (Cannabinoid receptor 1 [1]): 85%
Ki (Cannabinoid receptor 1 [2]): 2.3 µM

CCOC(=O)N1CCN(C(=O)c2cc(-c3ccccc3Cl)nn2-c2ccc(C)cc2C)CC1
Ratio Ki (Homo sapiens): 3.7
inhibition (Cannabinoid receptor 1 [1]): 98%
Ki (Cannabinoid receptor 1 [2]): 0.287 µM
Ki (Cannabinoid receptor 2): 1.07 µM
Activity (Cannabinoid receptor 1 [3]): 44%
EC50 (Cannabinoid receptor 1 [4]): 0.2 µM

CCOC(=O)N1CC=C2C(C1)C1(C(=O)N(Cc3ccccc3)c3ccccc31)C(C#N)=C(N)C2(C#N)C#N (configuration not stated)
inhibition (Cannabinoid receptor 1 [1]): 82%
Ki (Cannabinoid receptor 1 [2]): 1.09 µM

O=C(c1ccc(-n2cnnn2)cc1)N(c1ccccc1)C1(C(=O)Nc2ccccc2)CCCCC1
inhibition (Cannabinoid receptor 1 [1]): 71%
Ki (Cannabinoid receptor 1 [2]): 1.05 µM

COc1ccc(-c2cc(C(=O)N3CCN(C(C)=O)CC3)n(-c3cccc(C)c3)n2)c(OC)c1
inhibition (Cannabinoid receptor 1 [1]): 77%
Ki (Cannabinoid receptor 1 [2]): 1.94 µM

CC(C)NC(=O)C(C)Sc1nnc2c3ccccc3n(Cc3ccccc3)c2n1 (configuration not stated)
inhibition (Cannabinoid receptor 1 [1]): 86%
Ki (Cannabinoid receptor 1 [2]): 2.27 µM

Cc1ccc(C2c3cccn3-c3ccccc3N2C(=O)CN(C(=O)C2CCCC2)C2CC2)cc1 (configuration not stated)
Ratio Ki (Homo sapiens): > 19.2
inhibition (Cannabinoid receptor 1 [1]): 78%
Ki (Cannabinoid receptor 1 [2]): 0.52 µM
Ki (Cannabinoid receptor 2): 10 µM
Activity (Cannabinoid receptor 1 [3]): 91%
EC50 (Cannabinoid receptor 1 [4]): 1.1 µM

CS/C(=N\S(=O)(=O)c1ccc(-n2nc(C(F)(F)F)cc2-c2cccs2)cc1)N1CCCC1
inhibition (Cannabinoid receptor 1 [1]): 63%
Ki (Cannabinoid receptor 1 [2]): 1 µM

Cc1ccc(C(C(=O)Nc2ccc3c(c2)OCCO3)N(C)C(=O)/C=C\c2ccc3c(c2)OCO3)cc1 (configuration not stated)
inhibition (Cannabinoid receptor 1 [1]): 71%
Ki (Cannabinoid receptor 1 [2]): 1.47 µM

COC(=O)c1c(C)oc(C)c1S(=O)(=O)N1CCN(C2c3ccccc3-c3ccccc32)CC1
inhibition (Cannabinoid receptor 1 [1]): 87%
Ki (Cannabinoid receptor 1 [2]): 1.61 µM

Cc1cc(C)c(OCC(=O)Nc2sc3c(c2C(=O)NC2CCS(=O)(=O)C2)CCCC3)c(C)c1 (configuration not stated)
Ratio Ki (Homo sapiens): 0.2
inhibition (Cannabinoid receptor 1 [1]): 94%
Ki (Cannabinoid receptor 1 [2]): 0.325 µM
Ki (Cannabinoid receptor 2): 0.058 µM
Activity (Cannabinoid receptor 1 [3]): 60%
EC50 (Cannabinoid receptor 1 [4]): 0.4 µM

COc1ccc(C2c3ccsc3CCN2C(=O)CN(C(=O)C2CCCCC2)C(C)C)cc1 (configuration not stated)
inhibition (Cannabinoid receptor 1 [1]): 82%
Ki (Cannabinoid receptor 1 [2]): 2.59 µM
